Reference: paper PMC12677699, “Utilizing Proteolytic‐Resistant Nano‐Short Peptide Based on Naphthyl Tail‐Anchored to Combat Bacterial Infections” (Advanced Science, 2025)
Converted amounts (≈) assume the structure as drawn. Non-standard residues stand in square brackets, D forms with d. Residues, ends and D or L forms follow the SMILES beside them. ξ: configuration not given here. *: point of attachment. 1Naphthoyl = O=C(c1cccc2ccccc12)*; Palmitoyl = CCCCCCCCCCCCCCCC(=O)*; Myristoyl = CCCCCCCCCCCCCC(=O)*; Lauroyl = CCCCCCCCCCCC(=O)*; Decanoyl = CCCCCCCCCC(=O)*; ξAhp(2) = CCCCCC(N)C(=O)O

Columns and labels:
[1] = tested on: MRSA 43300; format: cell-based, Methicillin-Resistant Staphylococcus aureus
Protocol: (§1) The MIC values of the nano‐short peptides were determined according to standard protocols.^[ [63] ^] Bacterial strains were revived from cryopreservation and cultured in Mueller–Hinton broth (MHB) to logarithmic growth phase, then diluted to a final density of 0.5–1 × 10⁶ CFU mL^−1. Serial dilutions of the nano‐short peptides were prepared in 0.2% bovine serum albumin (BSA) using a 96‐well plate format. Equal volumes of peptide solutions and bacterial suspensions were combined and incubated at 37 °C for 20–22 h. Bacterial growth was assessed by measuring absorbance at 492 nm, with MHB alone (negative control) and untreated bacterial suspension (positive control) included for reference.

[2] = tested on: E. coli UB1005; format: cell-based, Escherichia coli
Protocol: as §1

[3] = tested on: E. coli 25922; format: cell-based, Escherichia coli
Protocol: as §1

[4] = tested on: E. coli 078; format: cell-based, Escherichia coli
Protocol: as §1

[5] = tested on: S. typhimurium 7731; format: cell-based, Salmonella typhimurium
Protocol: as §1

[6] = tested on: S. typhimurium 14028; format: cell-based, Salmonella typhimurium
Protocol: as §1

[7] = tested on: E. faecalis 29212; format: cell-based, Enterococcus faecalis
Protocol: as §1

[8] = tested on: S. pullorum C7913; format: cell-based
Protocol: as §1

[9] = tested on: S. epidermidis 12228; format: cell-based, Staphylococcus epidermidis
Protocol: as §1

[10] = tested on: S. aureus 25923; format: cell-based, Staphylococcus aureus
Protocol: as §1

[11] = tested on: S. aureus 29213; format: cell-based, Staphylococcus aureus
Protocol: as §1

[12] = tested on: P. aeruginosa PAO1; format: cell-based, Pseudomonas aeruginosa
Protocol: as §1

[13] = tested on: P. aeruginosa 27853; format: cell-based, Pseudomonas aeruginosa
Protocol: as §1

Structure (SMILES)	MIC, MRSA 43300 [1] [µM]	MIC, E. coli UB1005 [2] [µM]	MIC, E. coli 25922 [3] [µM]	MIC, E. coli 078 [4] [µM]	MIC, S. typhimurium 7731 [5] [µM]	MIC, S. typhimurium 14028 [6] [µM]	MIC, E. faecalis 29212 [7] [µM]	MIC, S. pullorum C7913 [8] [µM]	MIC, S. epidermidis 12228 [9] [µM]	MIC, S. aureus 25923 [10] [µM]	MIC, S. aureus 29213 [11] [µM]	MIC, P. aeruginosa PAO1 [12] [µM]	MIC, P. aeruginosa 27853 [13] [µM]
N=C(N)NCCC[C@H](NC(=O)c1cccc2ccccc12)C(=O)N[C@H](CCCNC(=N)N)C(=O)N[C@@H](CCCNC(=N)N)C(=O)N1CCC[C@H]1C(=O)O [Nap] (1Naphthoyl-R[dR]RP-OH)	256 (≈ 189 µg/mL)	256 (≈ 189 µg/mL)	256 (≈ 189 µg/mL)	256 (≈ 189 µg/mL)	256 (≈ 189 µg/mL)	256 (≈ 189 µg/mL)	256 (≈ 189 µg/mL)	256 (≈ 189 µg/mL)	256 (≈ 189 µg/mL)	256 (≈ 189 µg/mL)	256 (≈ 189 µg/mL)	256 (≈ 189 µg/mL)	256 (≈ 189 µg/mL)
C[C@H](N)C(=O)N[C@@H](C)C(=O)N[C@@H](C)C(=O)N[C@H](CCCNC(=N)N)C(=O)N[C@@H](CCCNC(=N)N)C(=O)N[C@@H](CCCNC(=N)N)C(=O)N1CCC[C@H]1C(=O)O [Peptide A3] (H-AAA[dR]RRP-OH)	256 (≈ 204 µg/mL)	256 (≈ 204 µg/mL)	256 (≈ 204 µg/mL)	256 (≈ 204 µg/mL)	256 (≈ 204 µg/mL)	256 (≈ 204 µg/mL)	256 (≈ 204 µg/mL)	256 (≈ 204 µg/mL)	256 (≈ 204 µg/mL)	256 (≈ 204 µg/mL)	256 (≈ 204 µg/mL)	256 (≈ 204 µg/mL)	256 (≈ 204 µg/mL)
C[C@H](N)C(=O)N[C@@H](C)C(=O)N[C@@H](C)C(=O)N[C@@H](C)C(=O)N[C@H](CCCNC(=N)N)C(=O)N[C@@H](CCCNC(=N)N)C(=O)N[C@@H](CCCNC(=N)N)C(=O)N1CCC[C@H]1C(=O)O [Peptide A4] (H-AAAA[dR]RRP-OH)	256 (≈ 222 µg/mL)	256 (≈ 222 µg/mL)	256 (≈ 222 µg/mL)	256 (≈ 222 µg/mL)	256 (≈ 222 µg/mL)	256 (≈ 222 µg/mL)	256 (≈ 222 µg/mL)	256 (≈ 222 µg/mL)	256 (≈ 222 µg/mL)	256 (≈ 222 µg/mL)	256 (≈ 222 µg/mL)	256 (≈ 222 µg/mL)	256 (≈ 222 µg/mL)
C[C@H](N)C(=O)N[C@@H](C)C(=O)N[C@@H](C)C(=O)N[C@@H](C)C(=O)N[C@@H](C)C(=O)N[C@H](CCCNC(=N)N)C(=O)N[C@@H](CCCNC(=N)N)C(=O)N[C@@H](CCCNC(=N)N)C(=O)N1CCC[C@H]1C(=O)O [Peptide A5] (H-AAAAA[dR]RRP-OH)	256 (≈ 240 µg/mL)	256 (≈ 240 µg/mL)	256 (≈ 240 µg/mL)	256 (≈ 240 µg/mL)	256 (≈ 240 µg/mL)	256 (≈ 240 µg/mL)	256 (≈ 240 µg/mL)	256 (≈ 240 µg/mL)	256 (≈ 240 µg/mL)	256 (≈ 240 µg/mL)	256 (≈ 240 µg/mL)	256 (≈ 240 µg/mL)	256 (≈ 240 µg/mL)
C[C@H](N)C(=O)N[C@@H](C)C(=O)N[C@@H](C)C(=O)N[C@@H](C)C(=O)N[C@@H](C)C(=O)N[C@@H](C)C(=O)N[C@H](CCCNC(=N)N)C(=O)N[C@@H](CCCNC(=N)N)C(=O)N[C@@H](CCCNC(=N)N)C(=O)N1CCC[C@H]1C(=O)O [Peptide A6] (H-AAAAAA[dR]RRP-OH)	256 (≈ 259 µg/mL)	256 (≈ 259 µg/mL)	256 (≈ 259 µg/mL)	256 (≈ 259 µg/mL)	256 (≈ 259 µg/mL)	256 (≈ 259 µg/mL)	256 (≈ 259 µg/mL)	256 (≈ 259 µg/mL)	256 (≈ 259 µg/mL)	256 (≈ 259 µg/mL)	256 (≈ 259 µg/mL)	256 (≈ 259 µg/mL)	256 (≈ 259 µg/mL)
CCCCCC(N)C(=O)NC(CCCCC)C(=O)NC(CCCCC)C(=O)N[C@H](CCCNC(=N)N)C(=O)N[C@@H](CCCNC(=N)N)C(=O)N[C@@H](CCCNC(=N)N)C(=O)N1CCC[C@H]1C(=O)O (stereo partly shown) [Peptide B3] (H-[ξAhp(2)][ξAhp(2)][ξAhp(2)][dR]RRP-OH; N-terminus assumed)	256 (≈ 247 µg/mL)	256 (≈ 247 µg/mL)	256 (≈ 247 µg/mL)	256 (≈ 247 µg/mL)	256 (≈ 247 µg/mL)	256 (≈ 247 µg/mL)	256 (≈ 247 µg/mL)	256 (≈ 247 µg/mL)	256 (≈ 247 µg/mL)	256 (≈ 247 µg/mL)	256 (≈ 247 µg/mL)	256 (≈ 247 µg/mL)	256 (≈ 247 µg/mL)
CCCCCCCCCC(=O)N[C@H](CCCNC(=N)N)C(=O)N[C@@H](CCCNC(=N)N)C(=O)N[C@@H](CCCNC(=N)N)C(=O)N1CCC[C@H]1C(=O)O [Peptide C10] (Decanoyl-[dR]RRP-OH)	128 (≈ 94.5 µg/mL)	256 (≈ 189 µg/mL)	256 (≈ 189 µg/mL)	256 (≈ 189 µg/mL)	256 (≈ 189 µg/mL)	256 (≈ 189 µg/mL)	256 (≈ 189 µg/mL)	256 (≈ 189 µg/mL)	128 (≈ 94.5 µg/mL)	256 (≈ 189 µg/mL)	256 (≈ 189 µg/mL)	256 (≈ 189 µg/mL)	256 (≈ 189 µg/mL)
CCCCCCCCCCCC(=O)N[C@H](CCCNC(=N)N)C(=O)N[C@@H](CCCNC(=N)N)C(=O)N[C@@H](CCCNC(=N)N)C(=O)N1CCC[C@H]1C(=O)O [Peptide C12] (Lauroyl-[dR]RRP-OH)	32 (≈ 24.5 µg/mL)	256 (≈ 196 µg/mL)	128 (≈ 98 µg/mL)	128 (≈ 98 µg/mL)	128 (≈ 98 µg/mL)	128 (≈ 98 µg/mL)	64 (≈ 49 µg/mL)	128 (≈ 98 µg/mL)	64 (≈ 49 µg/mL)	64 (≈ 49 µg/mL)	64 (≈ 49 µg/mL)	64 (≈ 49 µg/mL)	128 (≈ 98 µg/mL)
CCCCCCCCCCCCCC(=O)N[C@H](CCCNC(=N)N)C(=O)N[C@@H](CCCNC(=N)N)C(=O)N[C@@H](CCCNC(=N)N)C(=O)N1CCC[C@H]1C(=O)O [Peptide C14] (Myristoyl-[dR]RRP-OH)	16 (≈ 12.7 µg/mL)	128 (≈ 102 µg/mL)	64 (≈ 50.8 µg/mL)	64 (≈ 50.8 µg/mL)	64 (≈ 50.8 µg/mL)	128 (≈ 102 µg/mL)	32 (≈ 25.4 µg/mL)	64 (≈ 50.8 µg/mL)	32 (≈ 25.4 µg/mL)	32 (≈ 25.4 µg/mL)	32 (≈ 25.4 µg/mL)	32 (≈ 25.4 µg/mL)	64 (≈ 50.8 µg/mL)
CCCCCCCCCCCCCCCC(=O)N[C@H](CCCNC(=N)N)C(=O)N[C@@H](CCCNC(=N)N)C(=O)N[C@@H](CCCNC(=N)N)C(=O)N1CCC[C@H]1C(=O)O [Peptide C16] (Palmitoyl-[dR]RRP-OH)	32 (≈ 26.3 µg/mL)						32 (≈ 26.3 µg/mL)	256 (≈ 210 µg/mL)	32 (≈ 26.3 µg/mL)	32 (≈ 26.3 µg/mL)	32 (≈ 26.3 µg/mL)	32 (≈ 26.3 µg/mL)	
